Test results from PubChem BioAssay AID248 (DTP/NCI, 2004).
“And” between values parts separate entries of the source, which are not always exact repeats. Equal entries are not always repeated. Inconclusive results and toxic doses are left out. No stated cut-off is given here; in the data, active means T/C of 150% or more; inactive means T/C below 125%.

Tested on: L1210 leukemia ip in BDF1 mice, survival T/C
Assay: NCI In Vivo Anticancer Drug Screen. Data for tumor model L1210 Leukemia (intraperitoneal) in B6D2F1 (BDF1) mice
Conditions: endpoint: mean survival time, higher = longer survival
Outline: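 Tumor cells were implanted, animals were treated, and survival was followed. The result divides the treated measurement by the vehicle-control measurement.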

[1] = dose: 100.0 mg/kg/injection, schedule: Q01DX001 (ip), vehicle: Klucel (hydroxypropylcellulose) (HPC)
[2] = dose: 100.0 mg/kg/injection, schedule: Q01DX001 (ip), vehicle: saline
[3] = dose: 200.0 mg/kg/injection, schedule: Q01DX001 (ip), vehicle: saline
[4] = dose: 100.0 mg/kg/injection, schedule: Q04DX002 (ip), vehicle: Klucel (hydroxypropylcellulose) (HPC)
[5] = dose: 200.0 mg/kg/injection, schedule: Q04DX002 (ip), vehicle: Klucel (hydroxypropylcellulose) (HPC)
[6] = dose: 400.0 mg/kg/injection, schedule: Q04DX002 (ip), vehicle: Klucel (hydroxypropylcellulose) (HPC)
[7] = dose: 200.0 mg/kg/injection, schedule: Q01DX001 (ip), vehicle: Klucel (hydroxypropylcellulose) (HPC)
[8] = dose: 400.0 mg/kg/injection, schedule: Q01DX001 (ip), vehicle: Klucel (hydroxypropylcellulose) (HPC)
[9] = dose: 100.0 mg/kg/injection, schedule: Q01DX009 (ip), vehicle: Klucel (hydroxypropylcellulose) (HPC)
[10] = dose: 200.0 mg/kg/injection, schedule: Q01DX009 (ip), vehicle: Klucel (hydroxypropylcellulose) (HPC)
[11] = dose: 400.0 mg/kg/injection, schedule: Q01DX009 (ip), vehicle: Klucel (hydroxypropylcellulose) (HPC)
[12] = dose: 400.0 mg/kg/injection, schedule: Q01DX001 (ip), vehicle: saline

Measured: T/C

CCOC(=O)c1c[n]([Hg][n]2cc(C(=O)OCC)c(Nc3ccccc3Br)nc2=O)c(=O)nc1Nc1ccccc1Br
inactive: dose: 3.0 mg/kg/injection, schedule: Q01DX009 (ip), vehicle: Klucel (hydroxypropylcellulose) (HPC) 95 % of control | dose: 6.0 mg/kg/injection, schedule: Q01DX009 (ip), vehicle: Klucel (hydroxypropylcellulose) (HPC) 93 % of control | dose: 6.25 mg/kg/injection, schedule: Q04DX003 (ip), vehicle: Klucel (hydroxypropylcellulose) (HPC) 96 % of control | dose: 12.0 mg/kg/injection, schedule: Q01DX009 (ip), vehicle: Klucel (hydroxypropylcellulose) (HPC) 96 % of control | dose: 12.5 mg/kg/injection, schedule: Q04DX003 (ip), vehicle: Klucel (hydroxypropylcellulose) (HPC) 96 % of control and 103 % of control | dose: 25.0 mg/kg/injection, schedule: Q04DX003 (ip), vehicle: Klucel (hydroxypropylcellulose) (HPC) 88 % of control | dose: 50.0 mg/kg/injection, schedule: Q04DX003 (ip), vehicle: Klucel (hydroxypropylcellulose) (HPC) 100 % of control

CC(=O)NC1CCC(C)CC1 (configuration not stated)
inactive: dose: 50.0 mg/kg/injection, schedule: Q01DX001 (ip), vehicle: saline 109 % of control | [1] 93 % of control | [2] 93 % of control | [3] 102 % of control

CN(C)CCCN1CCC2(CC1)NC(=O)NC2=O
inactive: dose: 100.0 mg/kg/injection, schedule: Q04DX002 (ip), vehicle: saline 103 % of control | dose: 200.0 mg/kg/injection, schedule: Q04DX002 (ip), vehicle: saline 103 % of control | dose: 400.0 mg/kg/injection, schedule: Q04DX002 (ip), vehicle: saline 103 % of control

O=C1OC(/C=C/c2ccccc2)=NC/1=C\C=C\c1ccccc1
inactive: [4] 107 % of control | [5] 104 % of control | [6] 104 % of control

O=C(OC1OC(COCc2ccccc2)C(OCc2ccccc2)C1OCc1ccccc1)c1ccccc1 (configuration not stated)
inactive: [1] 92 % of control and 98 % of control | [7] 100 % of control and 98 % of control | [8] 94 % of control and 113 % of control

O=C(O)CN1C(=O)OC(c2ccccc2)C1=O (configuration not stated)
inactive: [9] 101 % of control | [10] 97 % of control | [11] 86 % of control

Cc1ccc(NC(=S)N(CCC#N)Cc2ccccc2)cc1C
inactive: dose: 100.0 mg/kg/injection, schedule: Q01DX001 (ip), vehicle: carboxymethylcellulose (CMC) 94 % of control | dose: 100.0 mg/kg/injection, schedule: Q01DX009 (ip), vehicle: carboxymethylcellulose (CMC) 93 % of control and 107 % of control | dose: 100.0 mg/kg/injection, schedule: Q04DX002 (ip), vehicle: carboxymethylcellulose (CMC) 98 % of control | dose: 100.0 mg/kg/injection, schedule: Q04DX003 (ip), vehicle: carboxymethylcellulose (CMC) 90 % of control | dose: 200.0 mg/kg/injection, schedule: Q01DX001 (ip), vehicle: carboxymethylcellulose (CMC) 100 % of control | dose: 200.0 mg/kg/injection, schedule: Q01DX009 (ip), vehicle: carboxymethylcellulose (CMC) 89 % of control and 91 % of control | dose: 200.0 mg/kg/injection, schedule: Q04DX002 (ip), vehicle: carboxymethylcellulose (CMC) 101 % of control and 88 % of control | dose: 200.0 mg/kg/injection, schedule: Q04DX003 (ip), vehicle: carboxymethylcellulose (CMC) 95 % of control | dose: 400.0 mg/kg/injection, schedule: Q01DX001 (ip), vehicle: carboxymethylcellulose (CMC) 90 % of control | dose: 400.0 mg/kg/injection, schedule: Q01DX009 (ip), vehicle: carboxymethylcellulose (CMC) 86 % of control | dose: 400.0 mg/kg/injection, schedule: Q04DX002 (ip), vehicle: carboxymethylcellulose (CMC) 95 % of control and 88 % of control | dose: 400.0 mg/kg/injection, schedule: Q04DX003 (ip), vehicle: carboxymethylcellulose (CMC) 90 % of control

CC(=O)NC1C(OCc2ccccc2)OC(CO)C(O)C1OCc1ccccc1 (configuration not stated)
inactive: dose: 100.0 mg/kg/injection, schedule: Q01DX001 (ip), vehicle: saline with Tween-80 100 % of control | dose: 200.0 mg/kg/injection, schedule: Q01DX001 (ip), vehicle: saline with Tween-80 107 % of control | dose: 400.0 mg/kg/injection, schedule: Q01DX001 (ip), vehicle: saline with Tween-80 96 % of control

CC(C)=NC(=O)NO.[Cl][Co][Cl]
inactive: dose: 9.4 mg/kg/injection, schedule: Q04DX003 (ip), vehicle: saline 100 % of control | dose: 18.75 mg/kg/injection, schedule: Q04DX003 (ip), vehicle: saline 107 % of control | dose: 37.5 mg/kg/injection, schedule: Q04DX003 (ip), vehicle: saline 107 % of control | dose: 75.0 mg/kg/injection, schedule: Q01DX001 (ip), vehicle: saline 103 % of control

O=C(O)c1ccccc1Cc1ccccc1
inactive: [4] 94 % of control | [5] 98 % of control | [6] 100 % of control

COc1ccc(C)cc1CCC=O
inactive: [2] 97 % of control | [3] 101 % of control | [12] 95 % of control

CCCCCCCCCCCCCCCC1=C(O)c2ccccc2C(=O)C1=O
inactive: [2] 112 % of control | [3] 101 % of control | [12] 103 % of control

COC(=N\S(=O)(=O)c1ccccc1)/C(=N\S(=O)(=O)c1ccccc1)OC
inactive: [1] 100 % of control | [7] 104 % of control | [8] 102 % of control

COc1cccc(CCCCO)c1
inactive: dose: 50.0 mg/kg/injection, schedule: Q01DX009 (ip), vehicle: saline with Tween-80 91 % of control | dose: 100.0 mg/kg/injection, schedule: Q01DX009 (ip), vehicle: saline with Tween-80 91 % of control

Nc1ncnc2c1ncn2C1OC(CO)C2OP(=O)(O)OC21 (configuration not stated)
inactive: dose: 100.0 mg/kg/injection, schedule: Q01DX005 (ip), vehicle: saline 95 % of control | dose: 200.0 mg/kg/injection, schedule: Q01DX005 (ip), vehicle: saline 118 % of control

O=C(/C=C/c1ccccc1)NC(=S)Nc1ccc(C(=O)O)cc1
inactive: [9] 92 % of control | dose: 100.0 mg/kg/injection, schedule: Q04DX003 (ip), vehicle: Klucel (hydroxypropylcellulose) (HPC) 101 % of control | [10] 101 % of control | dose: 200.0 mg/kg/injection, schedule: Q04DX003 (ip), vehicle: Klucel (hydroxypropylcellulose) (HPC) 100 % of control | [11] 94 % of control | dose: 400.0 mg/kg/injection, schedule: Q04DX003 (ip), vehicle: Klucel (hydroxypropylcellulose) (HPC) 108 % of control

CC(=O)NC(C)Cc1ccc2c(c1)OCO2 (configuration not stated)
inactive: [9] 102 % of control | [10] 107 % of control

O=C1c2ccccc2C(=O)N1Cc1cccc(CBr)c1
inactive: dose: 50.0 mg/kg/injection, schedule: Q01DX001 (ip), vehicle: Klucel (hydroxypropylcellulose) (HPC) 105 % of control | [1] 92 % of control | [7] 91 % of control

O=C(O)/C=C/c1cccc(Cl)c1
inactive: dose: 100.0 mg/kg/injection, schedule: Q01DX009 (ip), vehicle: gum acacia 113 % of control | dose: 200.0 mg/kg/injection, schedule: Q01DX009 (ip), vehicle: gum acacia 104 % of control | dose: 400.0 mg/kg/injection, schedule: Q01DX009 (ip), vehicle: gum acacia 100 % of control
